{"source": "patent US20250264483A1", "about": "“IDENTIFICATION OF PROTHROMBOTIC CONDITIONS” (Sydney Local Health District, priority 2020, published 2025)", "key": {"healthy donor platelets [1]": {"system": "healthy donor platelets", "test": "Procoagulant platelet flow cytometry assay (GSAO+/CD62P+), healthy donor whole blood with HIT patient plasma", "assay_type": "cell-based, human", "settings": "for difference in proportion of PP with HIT+ plasma compared to HIT−, no plasma or autologous plasma: agonist alone, absence of exogenous heparin (SFLLRN 5 μM, ADP 20 μM, CRP-xL 2 μg/mL; FIG. 2)", "procedure": "(§1) The GSAO-based whole blood PP flow cytometry assay established by the inventors^4 was modified to incorporate patient plasma. Citrated whole blood (13 μL) was incubated with and without agonists, unfractionated heparin (Pfizer) and plasma (5 μL) for 10 minutes with final concentrations of 2.5 mM Gly-Pro-Arg-Pro peptide (Sigma-Aldrich) and 2.5 mM calcium chloride. […] In some experiments, blood was pre-treated with 10 μg/mL IV.3 (StemCell Technologies), a monoclonal antibody against FcγRIIa, for 15 minutes prior to the reaction. Samples were incubated with antibodies to CD45, CD41a, CD62P—or isotype control, and GSAO or GSCA, and fixed before analysis on a BD LSRFortessa X-20.\nRepresentative flow cytometry plots from a single donor comparing no plasma with HIT− or HIT+ plasma indicate that addition of HIT+ plasma altered the sub-population profile of the platelets with a marked increase in procoagulant (GSAO+/CD62P+) platelets (FIG. 1A). […] There was also a smaller but statistically significant increase seen with HIT− plasma compared to no plasma (53.63±6.82 vs 42.05±4.24, P<0.05) (FIG. 1B)."}, "healthy donor platelets [2]": {"system": "healthy donor platelets", "test": "Procoagulant platelet flow cytometry assay, healthy donor whole blood with APS patient plasma", "assay_type": "cell-based, human", "settings": "for Average fold-change in procoagulant platelets: APS patient plasma", "procedure": "as §1\nCitrated whole blood (13 μL) was incubated with platelet agonists and plasma (5 μL) from healthy donors or patients, for 10 minutes with final concentrations of 2.5 mM Gly-Pro-Arg-Pro peptide (Sigma-Aldrich) and 2.5 mM calcium chloride in a 50 μL reaction. […] The reaction was stopped by further dilution with HBSS, followed by staining with antibodies to CD45 (HI30) (StemCell Technologies), CD41a (HIP8) (BD Biosciences), CD62P (Psel.KO2.3) (eBioscience)—or isotype control (eBioscience), and GSAO or control compound GSCA (4-(N—(S-glutathionylacetyl)amino)benzoic acid). Then, samples were fixed with PAMFix (Platelet Solutions Ltd), centrifuged and resuspended, prior to analysis on a BD LSRFortessa X-20 or BD FACSCanto II cytometer with acquisition of 10000 platelet events. Statistical analyses were performed using GraphPad Prism 9, with statistical significance set at p<0.05."}, "healthy donor platelets [3]": {"system": "healthy donor platelets", "test": "Procoagulant platelet flow cytometry assay, healthy donor whole blood with VITT patient plasma", "assay_type": "cell-based, human", "settings": "for proportion of procoagulant platelets: mean±SD"}, "[4]": {"settings": "cited from earlier work"}, "[5]": {"settings": "HIT+ plasma, agonist, no heparin (FIGS. 3B, D), mean±SEM"}, "[6]": {"settings": "HIT+ plasma, combined sample + agonist + therapeutic concentration heparin / high heparin control sample"}, "[7]": {"settings": "HIT+ plasma, combined sample + agonist + therapeutic concentration heparin / no heparin control sample"}}, "data": [{"compound": "Nc1ncnc2c1ncn2[C@@H]1O[C@H](COP(=O)(O)OP(=O)(O)O)[C@@H](O)[C@H]1O", "note": "[ADP, adenosine diphosphate]", "values": [{"measurement": "proportion of PP", "setting": "healthy donor platelets [1]; [5]", "value": "5.66±0.79"}, {"measurement": "Average fold-change in procoagulant platelets", "setting": "healthy donor platelets [1]; [6]", "value": 5.5, "unit": "fold"}, {"measurement": "Average fold-change in procoagulant platelets", "setting": "healthy donor platelets [1]; [7]", "value": 4.4, "unit": "fold"}, {"measurement": "difference in proportion of PP with HIT+ plasma compared to HIT−, no plasma or autologous plasma", "setting": "healthy donor platelets [1]", "value": "no difference"}]}, {"compound": "SFLLRN", "values": [{"measurement": "proportion of PP", "setting": "healthy donor platelets [1]; [5]", "value": "11.19±3.23"}, {"measurement": "Average fold-change in procoagulant platelets", "setting": "healthy donor platelets [1]; [6]", "value": 8.5, "unit": "fold"}, {"measurement": "Average fold-change in procoagulant platelets", "setting": "healthy donor platelets [1]; [7]", "value": 3.7, "unit": "fold"}, {"measurement": "difference in proportion of PP with HIT+ plasma compared to HIT−, no plasma or autologous plasma", "setting": "healthy donor platelets [1]", "value": "no difference"}, {"measurement": "change in procoagulant response between patient and autologous plasma", "setting": "healthy donor platelets [2]; APS plasma vs autologous plasma (FIG. 13A, C)", "value": "No significant change"}, {"measurement": "PP proportion", "setting": "healthy donor platelets [3]; SFLLRN 5 μM, ELISA false positive plasma (FIG. 9C)", "value": "3.93±0.78", "unit": "%"}, {"measurement": "proportion of procoagulant platelets", "setting": "healthy donor platelets [3]; SFLLRN 5 μM, HIT-like VITT (heparin-enhancing VITT) plasma (FIG. 8B)", "value": "23.60±8.768"}, {"measurement": "proportion of procoagulant platelets", "setting": "healthy donor platelets [3]; SFLLRN 5 μM, VITT negative plasma (FIG. 8B)", "value": "2.988±0.9564"}, {"measurement": "proportion of procoagulant platelets", "setting": "healthy donor platelets [3]; SFLLRN 5 μM, VITT plasma (FIG. 8B)", "value": "16.34±13.74"}, {"measurement": "PP proportion", "setting": "healthy donor platelets [3]; SFLLRN 5 μM, VITT-negative plasma (FIG. 9C)", "value": "4.50±2.09", "unit": "%"}, {"measurement": "PP proportion", "setting": "healthy donor platelets [3]; SFLLRN 5 μM, healthy donor blood, no plasma (FIG. 9C)", "value": "3.86±0.97", "unit": "%"}, {"measurement": "proportion of procoagulant platelets", "setting": "healthy donor platelets [3]; SFLLRN 5 μM, no plasma (FIG. 8B)", "value": "3.194±0.8185"}, {"measurement": "PP proportion", "setting": "healthy donor platelets [3]; SFLLRN 5 μM, plasma from healthy individuals (FIG. 9C)", "value": "3.57±1.36", "unit": "%"}]}, {"compound": "heparin", "values": [{"measurement": "occurrence of HIT in patients receiving the drug", "setting": "[4]", "value": "up to 3%"}, {"measurement": "proportion of PP", "setting": "healthy donor platelets [1]; HIT+ plasma, ADP 20 μM, high-dose heparin 100 U/mL", "value": "5.16±0.52"}, {"measurement": "proportion of PP", "setting": "healthy donor platelets [1]; HIT+ plasma, ADP 20 μM, therapeutic-concentration heparin 0.5 U/mL", "value": "25.22±5.94"}, {"measurement": "proportion of PP", "setting": "healthy donor platelets [1]; HIT+ plasma, CRP-xL 2 μg/mL, high-dose heparin 100 U/mL", "value": "11.70±2.63"}, {"measurement": "proportion of PP", "setting": "healthy donor platelets [1]; HIT+ plasma, CRP-xL 2 μg/mL, therapeutic-concentration heparin 0.5 U/mL", "value": "26.87±3.58"}, {"measurement": "proportion of PP", "setting": "healthy donor platelets [1]; HIT+ plasma, SFLLRN 5 μM, high-dose heparin 100 U/mL", "value": "4.39±0.35"}, {"measurement": "proportion of PP", "setting": "healthy donor platelets [1]; HIT+ plasma, SFLLRN 5 μM, therapeutic-concentration heparin 0.5 U/mL", "value": "36.53±7.50"}, {"measurement": "difference in PP formation in response to SFLLRN, ADP or CRP-xL", "setting": "healthy donor platelets [1]; HIT− plasma, therapeutic or high heparin concentrations (FIGS. 3A, C, E)", "value": "no difference"}, {"measurement": "difference in PP proportion compared to basal levels without exogenous plasma", "setting": "healthy donor platelets [1]; heparin 0.5 U/mL or 100 U/mL, HIT+ or HIT− plasma, no platelet agonist (FIG. 2)", "value": "no differences"}, {"measurement": "PP response", "setting": "healthy donor platelets [3]; high-dose heparin 100 U/mL, HIT plasma, SFLLRN 5 μM (FIG. 10B)", "value": "3.48±1.02", "unit": "%"}, {"measurement": "PP response", "setting": "healthy donor platelets [3]; high-dose heparin 100 U/mL, VITT plasma, SFLLRN 5 μM", "value": "3.54±1.41", "unit": "%"}, {"measurement": "PP response", "setting": "healthy donor platelets [3]; low-dose heparin 0.5 U/mL, VITT plasma, SFLLRN 5 μM (FIG. 10A)", "value": "12.48±12.84", "unit": "%"}]}, {"compound": "low-molecular-weight heparin", "values": [{"measurement": "occurrence of HIT in patients receiving the drug", "setting": "[4]", "value": 0.2, "unit": "%"}]}, {"compound": "thrombin: bovine thrombin (Sigma-Aldrich), platelet agonist", "values": [{"measurement": "proportion of PP", "setting": "healthy donor platelets [1]; HIT+ plasma, absence of heparin (FIG. 6A, D), thrombin 1 U/mL, CRP-xL 2 μg/mL", "value": "18.86±3.94"}, {"measurement": "proportion of PP", "setting": "healthy donor platelets [1]; HIT− plasma, absence of heparin (FIG. 6A, D), thrombin 1 U/mL, CRP-xL 2 μg/mL", "value": "19.55±4.16"}, {"measurement": "proportion of PP", "setting": "healthy donor platelets [1]; no plasma, absence of heparin (FIG. 6A, D), thrombin 1 U/mL, CRP-xL 2 μg/mL", "value": "4.16±0.24"}, {"measurement": "Average fold-change in procoagulant platelets", "setting": "healthy donor platelets [2]; combined sample / healthy control sample", "value": 5.7, "unit": "fold"}, {"measurement": "Average fold-change in procoagulant platelets", "setting": "healthy donor platelets [2]; combined sample / healthy control sample + autologous plasma", "value": 2.1, "unit": "fold"}, {"measurement": "increase in procoagulant platelet proportions relative to no plasma", "setting": "healthy donor platelets [2]; autologous plasma, thrombin stimulation (FIG. 13B)", "value": "0.3-5.5%"}, {"measurement": "increase in procoagulant platelet response", "setting": "healthy donor platelets [2]; plasma from an APS patient collected during plasma exchange, thrombin 1 U/mL, CRP-xL 2 μg/mL (FIG. 14)", "value": 4.5, "unit": "fold"}]}]}
